Assay results published in patent US20080255181A1, “Methods for treating podocyte-related disorders” (University of Heidelberg, priority 2006, published 2008).
Entries after “also recorded” stand apart in the source; their conditions may differ.

Assays:
[1] = system: ERK1/2; test: Western blotting of ERK1/2 phosphorylation in podocytes; type: cell-based, mouse
From the text: (§1) A well established cell model of conditionally immortalized murine podocytes was used to determine the impact of calcimimetics on podocyte function. These immortalized podocyte cell lines were generated from the Inmortomouse® (Charles River, Wilmington, Mass., USA) carrying a temperature-sensitive T-antigen as transgene, under the control of an interferon-γ inducible promoter. They were maintained cultured as previously described (Weins A et al. (2001) J Cell Biol 155: 393-404; Asanuma K. et al. (2005). J Clin Invest 115: 1188-1198. In brief, the cell line was maintained in RPMI 1640 (PAA Laboratories, Pasching, Austria) supplemented with 10% fetal bovine serum (PAA Laboratories, Pasching, Austria), 100 U/ml penicillin/streptomycin (Biochrom AG, Berlin, Germany) in humidified incubators with air-5% CO2. In order to induce differentiation, podocytes were grown on collagen type I (BD Bioscience, Bedford, Mass., USA) under permissive conditions at 33° C. with IFN-γ (10 U/ml) (Roche, Mannheim, Germany) or under non-permissive conditions at 37° C. without IFN-γ for at least 10 days.
(§2) Protein extraction from cultured podocytes and SDS-PAGE were done as previously described (Weins et al., supra). Total and phosphorylated proteins were detected by Western blotting as described previously, using the following primary antibodies: Bad (dilution 1:1000), pBad (1:1000), Bax (1:1000), Bid (1:1000), Bcl-xl (1:500), CREB (1:4000), ERK1/2 (1:4000), pERK 1/2 (1:4000), pJNK (1:1000), p38MAPK (1:500), p90RSK (1:2000) (Cell Signaling Technology, Beverly, Mass., USA), Bcl-2 (1:500), Caveolin-1 (1:500), 3-Actin (1:10000) (Abcam, Cambridge, UK) CaSR 1:100 (Alpha Diagnostics, San Antonio, Tex., USA). Western blot analysis was carried out according to standard protocols and visualized using enhanced chemiluminescence (ECL) immunoblot detection kits (Amersham Biosciences, Little Chalfont Buckinghamshire, UK).
It has been established previously that the activation of the CaSR induces a variety of intracellular signalling pathways such as the protein kinase C(PKC) and the MAP kinase pathways.
In addition, U0126 suppressed the phosphorylation of CREB (FIG. 10). Blockade of MEK1/2 and MAP kinases can not be bypassed via activation of other pathways such as PKC.

[2] = system: CREB; test: Western blotting of CREB phosphorylation in podocytes; type: cell-based, mouse
From the text: as §1
as §2, with “Western blot analysis was carried out according to standard protocols and visualized using enhanced chemiluminescence (ECL) immunoblot detection kits (Amersham Biosciences, Little Chalfont Buckinghamshire, UK).” left out
(§3) This CREB activation is able to mediate signals from numerous physiological stimuli, resulting in the regulation of a broad array of cellular responses, such as regulating of apoptosis associated genes. Therefore downstream pro-survival factors were analyzed. […]

[3] = system: podocytes; test: FACS analysis of PAN-induced apoptosis of podocytes; type: cell-based, mouse; details: PAN 30 μg/ml; for apoptosis rate of cultured podocytes: baseline less than 20% in controls; for reduction of PAN induced increase in apoptosis rate: Compound A 10 mmol/l as printed, p<0.05
From the text: as §1
All cells were treated as described, then washed and trypsinized. All washes and eluted cells were collected, pooled, and centrifuged. After washing cells with Annexin-binding buffer, cells were incubated with FITC-labelled Annexin-V (Molecular Probes) and propidium iodide (Molecular Probes) for 30 min. Annexin-V binds phosphatidylserine, which is translocated to the outer cell membrane during the initial stages of apoptosis. Propidium iodide was also applied to cells in order to distinguish necrosis from apoptosis. Cells were analyzed by flow cytometry (FACScalibur, Becton Dickinson). Apoptosis-associated fluorescence was measured using a log scale. Cells with high propidium iodide content were necrotic and were excluded from the analysis.
This example summarizes the results of FACS analyses. […] PAN (30 μg/ml) increased apoptosis rate of cultured podocytes to 44 and 78% correspondingly after 48 and 60 hrs of incubation, as compared to a baseline apoptosis rate of less than 20% in respective controls (FIG. 11). Addition of Compound A (10 mmol/l) reduced PAN induced increase in apoptosis rate in three independent experiments by 55 and 60% after 48 and 60 hrs respectively (both p<0.05).

[4] = system: BID; test: Western blotting of BID in podocytes; type: cell-based, mouse; details: Compound A exposure, HCl
From the text: (§4) A well established cell model of conditionally immortalized murine podocytes was used to determine the impact of calcimimetics on podocyte function. These immortalized podocyte cell lines were generated from the Inmortomouse® (Charles River, Wilmington, Mass., USA) carrying a temperature-sensitive T-antigen as transgene, under the control of an interferon-γ inducible promoter. […]
as §2, with “Western blot analysis was carried out according to standard protocols and visualized using enhanced chemiluminescence (ECL) immunoblot detection kits (Amersham Biosciences, Little Chalfont Buckinghamshire, UK).” left out

[5] = system: JNK; test: Western blotting of JNK activation in podocytes; type: cell-based, mouse; details: any time-point, HCl
From the text: as §4
as §2, with “Western blot analysis was carried out according to standard protocols and visualized using enhanced chemiluminescence (ECL) immunoblot detection kits (Amersham Biosciences, Little Chalfont Buckinghamshire, UK).” left out

[6] = system: PAN-treated rats; test: Animal model of PAN nephrosis (proteinuria); type: in vivo, rat
Description: Puromycin aminonucleoside (PAN), which induces oxidant injury in cells via the xanthine oxidase pathway, has been used extensively as a model of podocyte injury. Podocyte injury in this model can be ameliorated by inhibitors of oxidants. Following PAN injection (15 mg/100 g body weight), injury in the rat podocytes is manifest by loss of interdigitating foot processes, detachment from the GBM, pseudocyst formation, reduction in anionic charge, attenuation of the underlying GBM, and associated leakiness of the glomerular filter resulting in proteinuria. The PAN model also progresses to a patchy glomerular scarring process [focal glomerulosclerosis (FSGS)]. FSGS in humans is commonly associated with progression to end-stage renal disease (ESRD) requiring renal replacement therapy. […] Podocytes were stained against WT-1, a specific marker for podocytes and counted under an immunofluorescence microscope.
Male Sprague-Dawley rats weighing approximately 100 g were administered intraperitoneal PAN (Sigma Company, St. Louis, Mo., USA) at a dose of 15 mg/100 g body weight, or additionally at the same time a single injection of Compound A (doses 2 mg/100 g body weight) 4 hours before, or an equivalent volume of 0.9% saline (0.2-0.4 ml/animal) (N=10-15 animals per group). […] Protein/Creatinin ratio was measured with ADVIA 2400, Bayer Diagnostics. […]

[7] = system: podocytes genes; test: Microarray analysis of Compound A-dependent regulation of podocyte genes; type: cell-based, mouse; details: 10 nmol/l, 12 hrs
[8] = system: BAD; test: Western blotting of BAD phosphorylation in podocytes; type: cell-based, mouse; details: 10 nmol/l
From the text: as §4
as §2, with “Western blot analysis was carried out according to standard protocols and visualized using enhanced chemiluminescence (ECL) immunoblot detection kits (Amersham Biosciences, Little Chalfont Buckinghamshire, UK).” left out

[9] = system: p38 MAPK; test: Western blotting of p38 MAPK phosphorylation in podocytes; type: cell-based, mouse; details: 10 nmol/l, after 5 min and again after 30 and 60 min, HCl
From the text: as §4
as §2, with “Western blot analysis was carried out according to standard protocols and visualized using enhanced chemiluminescence (ECL) immunoblot detection kits (Amersham Biosciences, Little Chalfont Buckinghamshire, UK).” left out

[10] = system: intracellular proteins; test: Activation of intracellular proteins in podocytes by calcimimetic; type: cell-based, mouse; details: 4 nmol/l
From the text: as §4
as §2, with “Western blot analysis was carried out according to standard protocols and visualized using enhanced chemiluminescence (ECL) immunoblot detection kits (Amersham Biosciences, Little Chalfont Buckinghamshire, UK).” left out

[11] = system: p90RSK; test: Western blotting of p90RSK phosphorylation in podocytes; type: cell-based, mouse; details: 10 nmol/l, HCl
From the text: as §4
as §2, with “Western blot analysis was carried out according to standard protocols and visualized using enhanced chemiluminescence (ECL) immunoblot detection kits (Amersham Biosciences, Little Chalfont Buckinghamshire, UK).” left out
as §3

[12] = system: Bcl-xL; test: Western blotting of Bcl-xL expression in podocytes; type: cell-based, mouse; details: time-dependent, HCl
From the text: as §4
as §2, with “Western blot analysis was carried out according to standard protocols and visualized using enhanced chemiluminescence (ECL) immunoblot detection kits (Amersham Biosciences, Little Chalfont Buckinghamshire, UK).” left out

[13] = inhibitor 10 mM as printed, Compound A 10 nmol

N#CC(=C(/N)Sc1ccccc1N)/C(C#N)=C(\N)Sc1ccccc1N [Compound U0126, reference compound]
Compound A-induced phosphorylation of ERK1/2 in presence of MEK1/2 inhibitor ([1]; inhibitor 10 μM): abolish completely | calcimimetic-induced phosphorylation of ERK 1/2 in presence of inhibitor (FIG. 10 legend) [1, 13]: strongly inhibits | phosphorylation of CREB in presence of MEK1/2 inhibitor ([2]; inhibitor 10 μM): suppressed | calcimimetic-induced phosphorylation of CREB in presence of inhibitor (FIG. 10 legend) [2, 13]: strongly inhibits

CN(C)c1ncnc2c1ncn2[C@@H]1O[C@H](CO)[C@@H](N)[C@H]1O [PAN, puromycin aminonucleoside, reference compound]
apoptosis rate of cultured podocytes ([3]; 48 hrs of incubation): 44% | apoptosis rate of cultured podocytes ([3]; 60 hrs of incubation): 78%

COc1cccc([C@@H](C)NCCCc2ccccc2Cl)c1.Cl [Compound A, N-(3-[2-chlorophenyl]-propyl)-R-▪-methyl-3-methoxybenzylamine HCl]
BID [4]: not affected; also recorded: not influenced | PAN induced apoptosis of podocytes (FIG. 11 legend) ([3]; Compound A 10 nmol/l, 48 h and 60 h): prevents | reduction of PAN induced increase in apoptosis rate ([3]; 48 hrs): 55% | reduction of PAN induced increase in apoptosis rate ([3]; 60 hrs): 60% | phosphorylation of ERK1/2 ([1]; 4 to 50 nmol/l, dose- and time-dependent, HCl): phosphorylation of ERK1/2 occurs; also recorded: time and dose dependent phosphorylation | activation of ERK1/2 ([1]; 10 mol/l as printed, not further increased by higher concentrations): strong activation | time of first detectable ERK1/2 phosphorylation steps ([1]; Compound A incubation): 2 min | time of maximal ERK1/2 phosphorylation ([1]; Compound A incubation): 10 min | JNK activation [5]: no activation; also recorded: not activated | proteinuria in group receiving PAN and Compound A ([6]; male Sprague-Dawley rats, PAN 15 mg/100 g i.p., Compound A 2 mg/100 g body weight single injection, HCl): significant protection; also recorded: successfully impeded; also recorded: prevent the development of proteinuria | proteinuria after a single dose, compared to untreated control rats receiving saline ([6]; rats, after day 6, intraperitoneal): significantly induced | CaSR-regulated genes/number of genes analyzed: Adherens junction [7]: 11/62 | CaSR-regulated genes/number of genes analyzed: Adhesion-extracellular matrix [7]: 14/84 | CaSR-regulated genes/number of genes analyzed: Apoptosis [7]: 9/72 | CaSR-regulated genes/number of genes analyzed: Cytokine receptor interactions [7]: 29/187 | CaSR-regulated genes/number of genes analyzed: Focal Adhesions [7]: 30/174 | CaSR-regulated genes/number of genes analyzed: MAPK signaling pathways [7]: 30/193 | CaSR-regulated genes/number of genes analyzed: Nfkb signaling [7]: 8/79 | CaSR-regulated genes/number of genes analyzed: Regulation of actin cytoskeleton [7]: 26/171 | CaSR-regulated genes/number of genes analyzed: TGF beta signaling pathway [7]: 9/62 | CaSR-regulated genes/number of genes analyzed: Toll-like-receptor signaling [7]: 10/69 | CaSR-regulated genes/number of genes analyzed: Wnt signaling pathways [7]: 15/116 | mRNA expression of pro-apoptotic genes calpain 1, calpain small subunit 1, caspase 7 and caspase 8 [7]: down-regulated | mRNA expression of pro-survival factor Bcl-2 [7]: up-regulated | genes significantly regulated out of 15000 genes investigated ([7]; vs untreated cells): 10% | amount of non-phosphorylated BAD [8]: decreases | amount of phosphorylated BAD ([8]; time-dependent): clearly increases | p38 MAPK phosphorylation [9]: clear biphasic response pattern; also recorded: biphasic phosphorylation | CREB phosphorylation ([2]; 10 nmol/l, HCl): leads to CREB phosphorylation; also recorded: induction | activation of intracellular proteins [10]: activation of intracellular proteins was demonstrated | p90RSK phosphorylation [11]: phosphorylated in a similar time pattern as ERK1/2; also recorded: induction | Bcl-xl expression [12]: induced in a time-dependent way; also recorded: increased expression
